Measurements from patent publication US8463552B1, “Methods for medicinal dosage determination and diagnosis” (priority 2005, dated 2013).

Key:
[1] = test system: brain volumes of interest (BOLD signal); assay: BOLD-sensitive fMRI of anesthetized monkey during i.v. infusion of SKF82958; format: in vivo, M. fascicularis; conditions: 0.1 mg/kg total i.v. infusion from 10 to 15 min; one VOI in one subject; 1.5% isoflurane; FIG. 12
Excerpt: To determine how the noise levels in the simulation data just described correspond to realistic biological data, we acquired data using BOLD-sensitive fMRI imaging of an anesthetized monkey with administration of the dopamine agonist SKF82958. Experiments were approved in advance by the Washington University Animal Studies Committee and due care was exercised to prevent discomfort to the animal. During imaging sessions the animal's health was monitored by veterinary staff from the Washington University Division of Comparative Medicine. Two male M. fascicularis monkeys were studied. Imaging was done while the animals were ventilated with 1.5% isoflurane in oxygen. We obtained repeated whole-brain BOLD-sensitive fMRI images at a repetition interval of one every 3 seconds over a 40-minute period. At 10 minutes into the imaging session a steady-rate, slow intravenous infusion of the dopamine D1 agonist. SKF82958 was commenced finishing at 15 minutes, with a total administered dose of 0.1 mg/kg. […] Volumes of interest (VOIs) were traced on structural brain images acquired at the same session. These included left and right caudate, left and right putamen, striatum collectively, whole brain, and a midbrain region. Time-activity curves from each VOI were extracted and submitted to the computer method described above. […]

[2] = test system: whole-brain and regional blood flow; conditions: total administered dose 0.1 mg/kg; cited from earlier work

## C=CCN1CCc2c(cc(O)c(O)c2Cl)C(c2ccccc2)C1 (stereo not shown) [SKF82958]
[1]
  Emax (magnitude of BOLD response in VOI time-activity curve): at least 20
[2]
  effect on whole-brain mean quantitative blood flow: does not affect
  effects on regional blood flow consistent with local neuronal activation: produces reliable effects
  safety of dose: safe
